The values below come from ChEMBL document CHEMBL5380830, “Development and Therapeutic Implications of Tyrosine Kinase 2 Inhibitors” (J Med Chem, 2023).

Data set [1] concerns the target JAK1/TYK2 (Homo sapiens, UniProt P23458+P29597). As to the kind of experiment: Inhibition of JAK2/TYK2 in HEK293T cells co-expressing luciferase gene under control of ISRE assessed as reduction in IFNalpha expression incubated for 6 hrs by one-glo reagent based luciferase reporter gene assay. The class given is cell-based. A general note: In a reporter assay the amount or activity of a reporter protein is the signal.

For data set [2], the target named is T1, JAK2/TYK2 (Homo sapiens, UniProt O60674+P29597). As to the kind of experiment: Inhibition of JAK2/TYK2 in HEK-Blue IL-23 cells assessed as reduction in SEAP reporter gene expression incubated for 21 hrs by Quanti-blue assay. In kind it is cell-based.
T1 sequence (O60674 whole entry): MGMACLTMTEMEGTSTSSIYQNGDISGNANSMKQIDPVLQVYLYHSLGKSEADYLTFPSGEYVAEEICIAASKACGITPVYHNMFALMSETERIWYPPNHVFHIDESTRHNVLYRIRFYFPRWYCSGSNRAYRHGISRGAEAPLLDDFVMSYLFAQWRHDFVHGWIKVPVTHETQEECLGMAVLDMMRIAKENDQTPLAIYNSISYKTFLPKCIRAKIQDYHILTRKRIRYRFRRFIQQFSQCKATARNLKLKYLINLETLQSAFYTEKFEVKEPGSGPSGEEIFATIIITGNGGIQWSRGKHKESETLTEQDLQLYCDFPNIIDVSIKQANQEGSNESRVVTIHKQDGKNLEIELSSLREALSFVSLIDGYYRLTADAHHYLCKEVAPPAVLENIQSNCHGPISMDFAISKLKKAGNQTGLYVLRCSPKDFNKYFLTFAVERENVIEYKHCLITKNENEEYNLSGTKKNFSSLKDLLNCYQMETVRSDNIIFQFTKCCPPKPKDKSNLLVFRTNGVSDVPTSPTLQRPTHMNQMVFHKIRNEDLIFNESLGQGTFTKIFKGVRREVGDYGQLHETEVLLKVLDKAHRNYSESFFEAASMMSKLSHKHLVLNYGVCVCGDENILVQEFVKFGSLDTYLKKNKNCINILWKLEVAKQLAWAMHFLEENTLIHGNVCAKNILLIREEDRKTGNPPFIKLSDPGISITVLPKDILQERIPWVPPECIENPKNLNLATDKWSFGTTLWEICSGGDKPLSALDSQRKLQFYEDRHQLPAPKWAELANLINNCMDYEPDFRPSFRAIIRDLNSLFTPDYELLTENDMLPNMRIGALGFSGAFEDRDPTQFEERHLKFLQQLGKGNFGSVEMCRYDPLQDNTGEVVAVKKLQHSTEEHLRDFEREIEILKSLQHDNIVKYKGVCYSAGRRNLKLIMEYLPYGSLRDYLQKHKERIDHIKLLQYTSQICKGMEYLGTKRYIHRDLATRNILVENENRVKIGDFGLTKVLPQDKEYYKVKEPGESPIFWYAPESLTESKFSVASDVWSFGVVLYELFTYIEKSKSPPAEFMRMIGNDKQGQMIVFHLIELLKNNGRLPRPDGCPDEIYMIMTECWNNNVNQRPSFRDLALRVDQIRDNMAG
T1 sequence (P29597 whole entry): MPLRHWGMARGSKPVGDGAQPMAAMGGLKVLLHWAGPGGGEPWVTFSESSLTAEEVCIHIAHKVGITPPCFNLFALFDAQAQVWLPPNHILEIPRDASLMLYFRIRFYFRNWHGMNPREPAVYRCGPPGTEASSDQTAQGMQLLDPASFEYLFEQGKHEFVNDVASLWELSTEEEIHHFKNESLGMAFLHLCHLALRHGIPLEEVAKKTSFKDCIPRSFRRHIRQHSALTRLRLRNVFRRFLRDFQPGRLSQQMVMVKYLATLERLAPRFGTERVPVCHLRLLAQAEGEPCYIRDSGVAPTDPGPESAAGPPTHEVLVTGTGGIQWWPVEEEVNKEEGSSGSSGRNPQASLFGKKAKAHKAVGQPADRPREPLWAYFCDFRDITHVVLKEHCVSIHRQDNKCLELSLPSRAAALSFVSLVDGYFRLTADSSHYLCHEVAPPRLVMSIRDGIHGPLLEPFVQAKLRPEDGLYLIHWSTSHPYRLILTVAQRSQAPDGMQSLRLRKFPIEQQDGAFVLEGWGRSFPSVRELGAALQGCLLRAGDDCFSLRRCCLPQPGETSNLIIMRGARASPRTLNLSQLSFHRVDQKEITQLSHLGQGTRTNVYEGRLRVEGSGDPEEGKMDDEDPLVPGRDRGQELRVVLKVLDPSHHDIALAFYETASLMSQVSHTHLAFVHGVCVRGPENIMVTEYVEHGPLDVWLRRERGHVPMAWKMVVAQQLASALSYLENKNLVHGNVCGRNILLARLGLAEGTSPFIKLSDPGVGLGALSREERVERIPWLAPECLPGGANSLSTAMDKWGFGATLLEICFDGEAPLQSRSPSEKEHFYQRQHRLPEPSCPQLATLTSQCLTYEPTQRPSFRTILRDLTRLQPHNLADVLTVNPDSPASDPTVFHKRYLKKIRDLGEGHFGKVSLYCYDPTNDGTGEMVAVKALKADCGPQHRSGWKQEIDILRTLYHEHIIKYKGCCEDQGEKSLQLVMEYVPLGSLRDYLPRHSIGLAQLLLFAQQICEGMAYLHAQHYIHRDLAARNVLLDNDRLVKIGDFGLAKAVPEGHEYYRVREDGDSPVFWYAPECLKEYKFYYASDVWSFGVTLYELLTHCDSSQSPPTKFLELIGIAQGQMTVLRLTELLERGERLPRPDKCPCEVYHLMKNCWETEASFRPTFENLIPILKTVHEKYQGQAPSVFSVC
In data set [3] the target is T2, Tyrosine-protein kinase JAK2 (Homo sapiens, UniProt O60674). As to the kind of experiment: Inhibition of JAK2 in human TF-1 cells assessed as reduction of STAT5 phosphorylation by ELISA assay. The class given is cell-based. (An ELISA detects its analyte on a solid surface through an enzyme-linked reagent.)
T2 sequence (O60674 whole entry): as the sequence (O60674 whole entry) above
The target of data set [4] is T3, Tyrosine-protein kinase JAK1 (Homo sapiens, UniProt P23458). As to the kind of experiment: Inhibition of JAK1 (unknown origin) using ULight - JAK (Tyr1023) substrate incubated for 60 mins in presence of ATP by envision plate reader based analysis.
T3 sequence (P23458 whole entry): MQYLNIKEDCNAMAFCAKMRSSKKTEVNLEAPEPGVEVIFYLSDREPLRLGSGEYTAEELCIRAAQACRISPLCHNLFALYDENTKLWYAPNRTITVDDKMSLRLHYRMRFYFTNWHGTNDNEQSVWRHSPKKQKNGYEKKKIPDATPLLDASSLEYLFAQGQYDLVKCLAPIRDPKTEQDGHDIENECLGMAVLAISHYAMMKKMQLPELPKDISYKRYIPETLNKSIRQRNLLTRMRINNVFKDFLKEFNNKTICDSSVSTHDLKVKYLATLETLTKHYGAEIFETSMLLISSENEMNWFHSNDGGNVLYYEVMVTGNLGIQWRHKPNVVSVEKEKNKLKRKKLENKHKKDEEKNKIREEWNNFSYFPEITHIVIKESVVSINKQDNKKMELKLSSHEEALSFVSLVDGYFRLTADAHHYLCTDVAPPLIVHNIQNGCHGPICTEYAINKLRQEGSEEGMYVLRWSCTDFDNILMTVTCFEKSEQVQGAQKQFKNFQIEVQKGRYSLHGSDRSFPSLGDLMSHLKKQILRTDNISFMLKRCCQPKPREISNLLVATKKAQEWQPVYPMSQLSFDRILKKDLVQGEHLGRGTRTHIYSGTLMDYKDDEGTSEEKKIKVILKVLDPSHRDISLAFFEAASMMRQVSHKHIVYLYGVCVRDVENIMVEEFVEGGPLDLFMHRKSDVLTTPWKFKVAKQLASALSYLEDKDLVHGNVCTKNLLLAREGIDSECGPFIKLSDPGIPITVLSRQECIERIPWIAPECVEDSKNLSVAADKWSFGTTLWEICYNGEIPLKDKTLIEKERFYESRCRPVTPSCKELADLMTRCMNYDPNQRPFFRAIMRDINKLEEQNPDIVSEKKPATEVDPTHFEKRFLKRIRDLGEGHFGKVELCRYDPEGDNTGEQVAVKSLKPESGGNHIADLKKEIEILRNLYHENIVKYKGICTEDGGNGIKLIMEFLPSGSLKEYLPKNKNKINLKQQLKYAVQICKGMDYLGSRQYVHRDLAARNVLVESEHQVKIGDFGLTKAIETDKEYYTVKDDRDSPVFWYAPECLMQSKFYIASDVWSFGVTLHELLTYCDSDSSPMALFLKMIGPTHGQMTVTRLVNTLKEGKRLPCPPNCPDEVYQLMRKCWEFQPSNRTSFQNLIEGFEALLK
The target in data set [5] is T4, Tyrosine-protein kinase JAK3 (Homo sapiens, UniProt P52333).
T4 sequence (P52333 whole entry): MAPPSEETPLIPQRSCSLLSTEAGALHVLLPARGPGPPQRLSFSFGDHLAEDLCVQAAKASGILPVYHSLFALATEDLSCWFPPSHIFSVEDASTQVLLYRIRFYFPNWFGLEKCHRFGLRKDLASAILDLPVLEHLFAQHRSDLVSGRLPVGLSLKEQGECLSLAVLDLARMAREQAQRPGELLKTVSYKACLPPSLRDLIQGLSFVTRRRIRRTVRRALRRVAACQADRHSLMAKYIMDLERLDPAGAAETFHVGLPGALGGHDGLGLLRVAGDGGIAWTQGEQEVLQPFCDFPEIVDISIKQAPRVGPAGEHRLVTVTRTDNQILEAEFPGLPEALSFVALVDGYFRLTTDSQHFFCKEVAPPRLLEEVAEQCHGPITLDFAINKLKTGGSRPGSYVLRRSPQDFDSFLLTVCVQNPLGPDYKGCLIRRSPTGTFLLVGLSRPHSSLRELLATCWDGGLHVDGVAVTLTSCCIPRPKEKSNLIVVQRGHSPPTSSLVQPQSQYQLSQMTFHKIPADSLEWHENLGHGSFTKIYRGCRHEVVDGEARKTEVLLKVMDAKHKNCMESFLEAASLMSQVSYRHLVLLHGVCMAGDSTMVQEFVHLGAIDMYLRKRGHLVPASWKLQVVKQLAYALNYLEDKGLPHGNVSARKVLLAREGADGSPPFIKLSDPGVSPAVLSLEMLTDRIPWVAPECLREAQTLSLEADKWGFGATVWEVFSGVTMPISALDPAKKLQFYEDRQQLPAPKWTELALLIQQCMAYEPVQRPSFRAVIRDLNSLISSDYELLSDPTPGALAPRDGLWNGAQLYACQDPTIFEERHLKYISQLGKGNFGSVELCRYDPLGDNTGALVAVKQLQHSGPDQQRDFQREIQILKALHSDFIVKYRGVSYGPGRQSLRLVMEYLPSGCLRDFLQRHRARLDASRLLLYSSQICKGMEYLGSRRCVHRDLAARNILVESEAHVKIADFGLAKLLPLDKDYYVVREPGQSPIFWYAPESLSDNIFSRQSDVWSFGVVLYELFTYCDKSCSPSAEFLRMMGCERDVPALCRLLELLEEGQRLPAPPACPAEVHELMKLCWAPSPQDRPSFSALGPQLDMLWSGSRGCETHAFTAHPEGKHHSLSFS
As to the kind of experiment: Inhibition of JAK3 (unknown origin) using ULight - JAK (Tyr1023) substrate incubated for 60 mins in presence of ATP by envision plate reader based analysis.

Data set [6] concerns the target T5, Non-receptor tyrosine-protein kinase TYK2 (Homo sapiens, UniProt P29597). As to the kind of experiment: Inhibition of TYK2 signal transduction pathway in human TF-1 cells assessed as reduction in GM-CSF induced p-STAT5 level. In kind it is cell-based.
For data set [7], the target named is T1, JAK2/TYK2. As to the kind of experiment: Inhibition of JAK2/TYK2 signal transduction pathway in human NK92 cells assessed as IL-12 induced STAT4 phosphorylation. The class given is cell-based.
The target in data set [8] is T3, Tyrosine-protein kinase JAK1. As to the kind of experiment: Inhibition of JAK1 JH2 (unknown origin).
Data set [9] concerns the target T5, Non-receptor tyrosine-protein kinase TYK2. As to the kind of experiment: Inhibition of TYK2 JH2 (561 to 860 residues) (unknown origin) by HTRF assay.
Data set [10] deals with Janus Kinase (JAK) (Homo sapiens, UniProt P52333+P23458+O60674+P29597). As to the kind of experiment: Inhibition of JAK JH1 (unknown origin). The class given is protein assay.
A short description of data set [11]: Inhibition of IFNalpha induced STAT phosphorylation in HEK293 cells by Western blotting analysis. The class given is cell-based. The following applies: Homo sapiens. For orientation: In western blotting, separated proteins are transferred to a membrane and probed.
Data set [12] can be described thus: Inhibition of IL-2 induced STAT phosphorylation in HEK293 cells by Western blotting analysis. The class given is cell-based. The following applies: Homo sapiens.
Data set [13] can be described thus: Inhibition of IFN-gamma induced STAT phosphorylation in HEK293 cells by Western blotting analysis. In kind it is cell-based. To be noted: Homo sapiens.
Data set [14] can be described thus: Inhibition of IL-23 induced STAT phosphorylation in HEK293 cells by Western blotting analysis. The class given is cell-based. The following applies: Homo sapiens.
The target of data set [15] is T4, Tyrosine-protein kinase JAK3. As to the kind of experiment: Inhibition of JAK3 (unknown origin).
Data set [16] deals with T3, Tyrosine-protein kinase JAK1. As to the kind of experiment: Inhibition of JAK1 (unknown origin).
Data set [17] addresses T2, Tyrosine-protein kinase JAK2. As to the kind of experiment: Inhibition of JAK2 (unknown origin).
Data set [18] addresses T5, Non-receptor tyrosine-protein kinase TYK2. As to the kind of experiment: Inhibition of TYK2 JH2 (unknown origin).
The nature of data set [19]: AUC in C57BL/6 mouse at 10 mg/kg, po by LC/MS-MS analysis. The following applies: in vivo. In kind it is ADME, organism-based. Further details: dose 10 mg/kg, route po.
Data set [20] can be described thus: Cmax in C57BL/6 mouse at 10 mg/kg, po by LC/MS-MS analysis. To be noted: in vivo. Set-up: dose 10 mg/kg, route po. The class given is ADME, organism-based.
The target in data set [21] is T5, Non-receptor tyrosine-protein kinase TYK2. As to the kind of experiment: Inhibition of TYK2 JH1 (unknown origin).
The target is the same in data set [22]. As to the kind of experiment: Binding affinity to His-tagged human recombinant TYK2 JH2 (556 to 871 residues) incubated for 10 hrs by microplate reader based analysis.
Data set [23] has as its target T1, JAK2/TYK2. As to the kind of experiment: Inhibition of JAK2/TYK2 signal transduction pathway in human PBMC cells assessed as IL-23 induced p-STAT4 level by AlphaLISA assay. The class given is cell-based.
Data set [24] deals with T1, JAK2/TYK2. As to the kind of experiment: Inhibition of JAK2/TYK2 signal transduction pathway in human PBMC cells assessed as IL-12 induced p-STAT4 level by AlphaLISA assay. In kind it is cell-based.
Data set [25] addresses T1, JAK2/TYK2. As to the kind of experiment: Inhibition of JAK2/TYK2 signal transduction pathway in human PBMC cells assessed as reduction in GM-CSF induced p-STAT5 level incubated for 20 mins. In kind it is cell-based.
Data set [26] concerns the target T5, Non-receptor tyrosine-protein kinase TYK2. As to the kind of experiment: Inhibition of TYK2 JH1 (unknown origin) at 10 uM relative to control.
Data set [27] has as its target T3, Tyrosine-protein kinase JAK1. As to the kind of experiment: Binding affinity to JAK1 JH2 (unknown origin).
The target in data set [28] is T2, Tyrosine-protein kinase JAK2. As to the kind of experiment: Inhibition of JAK2 JH1 (unknown origin) at 10 uM relative to control.
The target of data set [29] is T1, JAK2/TYK2. As to the kind of experiment: Inhibition of JAK2/TYK2 signal transduction pathway in human PBMC cells assessed as IL-12 induced p-STAT4 level incubated for 30 mins. In kind it is cell-based.
The target of data set [30] is T5, Non-receptor tyrosine-protein kinase TYK2. As to the kind of experiment: Binding affinity to human wild-type partial length TYK2 JH2 (G556 to D888 residues) expressed in mammalian expression system by KINOMEscan assay.
A short description of data set [31]: Oral bioavailability in C57BL/6 mouse at 10 mg/kg by LC/MS-MS analysis. To be noted: in vivo. The class given is ADME, organism-based.
In data set [32] the target is T5, Non-receptor tyrosine-protein kinase TYK2. As to the kind of experiment: Inhibition of TYK2 signal transduction pathway in human PBMC cells assessed as IFNalpha induced p-STAT5 level. In kind it is cell-based.
A short description of data set [33]: Half life in C57BL/6 mouse at 10 mg/kg, po by LC/MS-MS analysis. The following applies: in vivo. In kind it is ADME, organism-based.
For data set [34], the target named is T5, Non-receptor tyrosine-protein kinase TYK2. As to the kind of experiment: Binding affinity to TYK2 JH2 (unknown origin).

T5 sequence (P29597 whole entry): as the sequence (P29597 whole entry) above
Chain of JAK1/TYK2 (P23458 whole entry): as the sequence (P23458 whole entry) above
Chain of JAK1/TYK2 (P29597 whole entry): as the sequence (P29597 whole entry) above

By EC50 is commonly meant the concentration giving half of the maximal effect. Consider `[2H]C([2H])([2H])Nc1cc(Nc2cc(Cl)cn(-c3ccccn3)c2=O)nn2c(C(=O)N[C@@H]3C[C@@H]3F)cnc12`, for which the figures for the EC50 in [1], in data set [2] and in data set [3] were below 0.01 µM, below 0.001 µM and above 10 µM, respectively.

A word on the IC50: it is the concentration at which inhibition is half-maximal. In the case of `Cn1cc(-c2cn3ncnc3c(-c3ccn([C@]4(CC#N)C[C@@H](C#N)C4)c3)n2)cn1`, the half-inhibitory concentration (IC50) in [4] and in data set [5] was above 5 µM in each case.

`COCCOc1cc(Nc2cc(NC(C)=O)ncc2-c2ccccn2)nc(S(C)(=O)=O)c1`: the IC50 in data set [6] is above 10 µM; in data set [7], 0.00121 µM; in [8], 0.0012 µM; in data set [9], 0.018 nM.

`COc1cccc(-n2[nH]c(=O)c3cnc(Nc4cc(C)nc(C)n4)cc32)c1F`: the IC50 in [10] was above 90 µM; in [11] it was below 10 µM; in [12], above 90 µM; in [13], above 90 µM; in data set [14], below 10 µM.

For orientation: AUC means concentration integrated over time. High values mean high exposure, low ones low exposure. The term Cmax denotes the highest concentration seen after dosing. Take `CO[C@@]1(c2cc(C)cc(-n3cc(C4CCN(C)CC4)c4cnc(NC(N)=O)cc43)n2)CCOC1`: the IC50 was above 10 µM in [15]; above 10 µM in data set [16]; above 10 µM in data set [17]; 0.0021 µM in data set [18]; above 10 µM in data set [21]. This compound registered an AUC in [19] of 16600 ng·h/mL. This compound also came in with a Cmax in data set [20] of 2740 ng/mL.

Take `N#Cc1ccc(-n2[nH]c(=O)c3cnc(Nc4ccc(F)cn4)cc32)cc1Cl`: the IC50 in data set [10] is above 90 µM; in [11], below 10 µM; in [12] it was above 90 µM; in [13] it was above 90 µM; in [14], below 10 µM.

For orientation: Ki means a measure of affinity in units of concentration, obtained from inhibition or displacement. On to `CO[C@@]1(c2cc(C)cc(-c3cc(C)n4cnc(NC(N)=O)cc34)n2)CCOC1`, for which the Ki in data set [22] is 0.002 µM. Further, the IC50 was 0.002 µM in data set [23] and 0.008 µM in [24].

One may read the inhibition as how much of the control response was suppressed. A low value points to a weak effect. As a reminder, the Kd is the equilibrium constant for the complex coming apart. Low readings indicate a tighter complex, high ones a looser complex. With `CNc1cc(Nc2cccnc2OC)nc2c(C(=O)NCC3(CO)CC3)cnn12`, the IC50 in [25] and in data set [29] was below 0.5 µM throughout. Besides, the inhibition in data set [26] and in data set [28] was below 50% throughout. For the same compound, the figures for the Kd in data set [27] and in data set [30] were 5 µM and below 0.0002 µM, respectively.

As usually defined, the half-life is the time needed for the level to fall by half in the phase considered. A low value points to rapid decline. Consider `CNC(=O)c1cnc2cc1Nc1cc(cc(-c3ccn(C)n3)c1OC)CCOCc1nc(ccc1C)N2`, for which, in data set [31], the bioavailability came to 148%. Moreover, the half-inhibitory concentration (IC50) in [32] was at most 0.05 µM; in data set [15], above 10 µM; in data set [16], above 10 µM; in data set [17] it was above 10 µM; in data set [21] it was above 10 µM. Also, the half-life in data set [33] was 2.26 h. The compound also gave a Kd in [34] below 0.001 µM.
